Reference: ChEMBL document CHEMBL1201862, “PubChem BioAssay data set” (2004)
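Cultured in 96-well plates, cells were exposed to test compound for 48 hours across five concentrations. GI50: concentration for 50% inhibition of growth.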 Active and inactive are the calls of the source. Rule as the data show it: active = GI50 up to about 1.1 µM and inactive = higher.

What was measured:
Test in all cases: inhibition of tumour cell growth, NCI panel, 48 h
RXF 393 = tested on: RXF 393
LOX IMVI = tested on: LOX IMVI
Hs-578T = tested on: Hs-578T
UACC-257 = tested on: UACC-257
SF-295 = tested on: SF-295
M14 = tested on: M14
COLO 205 = tested on: COLO 205
CCRF-CEM = tested on: CCRF-CEM
KM12 = tested on: KM12
MDA-MB-435 = tested on: MDA-MB-435
MCF7 = tested on: MCF7
SW-620 = tested on: SW-620
MDA-N = tested on: MDA-N
TK-10 = tested on: TK-10
HT-29 = tested on: HT-29
PC-3 = tested on: PC-3
SNB-19 = tested on: SNB-19
CAKI-1 = tested on: CAKI-1
786-0 = tested on: 786-0
NCI-H226 = tested on: NCI-H226

Measured: GI50

CCOC(=O)Nc1ccc(S(=O)(=O)Nn2cnnc2)cc1
inactive: RXF 393 > 100 µM | LOX IMVI 69.3 µM | Hs-578T 57.9 µM | UACC-257 > 100 µM | SF-295 31.5 µM | M14 43 µM | COLO 205 39.9 µM | CCRF-CEM 23.9 µM | KM12 36.2 µM | MDA-MB-435 16.4 µM | MCF7 41.2 µM | SW-620 33.3 µM | MDA-N 22 µM | TK-10 85.5 µM | HT-29 20.3 µM | PC-3 57.4 µM | SNB-19 > 100 µM | CAKI-1 47.1 µM | 786-0 46.5 µM

CC(=O)NC1C(OCc2ccccc2)OC(CO)C(O)C1OC(C)C(=O)NC(C(=O)NC(CCC(=O)Nc1ccc2c(c1)CN1C(=O)c3ccccc3C1=N2)C(N)=O)C(C)C (centres undefined)
inactive: RXF 393 > 100 µM | LOX IMVI > 100 µM | Hs-578T > 100 µM | UACC-257 > 100 µM | SF-295 > 100 µM | M14 > 100 µM | COLO 205 > 100 µM | CCRF-CEM > 100 µM | KM12 > 100 µM | MDA-MB-435 > 100 µM | MCF7 > 100 µM | SW-620 > 100 µM | MDA-N > 100 µM | TK-10 > 100 µM | HT-29 > 100 µM | PC-3 > 100 µM | SNB-19 > 100 µM | CAKI-1 > 100 µM | 786-0 > 100 µM

COc1cc(C2SCC(=O)N2c2ccc(NC(C)=O)cc2)cc(OC)c1OC (centres undefined)
inactive: NCI-H226 > 100 µM | LOX IMVI > 100 µM | Hs-578T > 100 µM | UACC-257 > 100 µM | SF-295 > 100 µM | M14 > 100 µM | COLO 205 > 100 µM | CCRF-CEM 25.9 µM | KM12 > 100 µM | MDA-MB-435 52.7 µM | MCF7 51.3 µM | SW-620 > 100 µM | MDA-N 33.8 µM | TK-10 > 100 µM | HT-29 90.4 µM | PC-3 > 100 µM | SNB-19 > 100 µM | CAKI-1 65.2 µM | 786-0 > 100 µM

COC1CC(OC2C(C)OC(OC3C(C)OC(OC4C(C)OC(O[C@H]5CC[C@@]6(C)C(=CC[C@]7(O)[C@@H]6C[C@@H](OC(=O)/C=C/c6ccccc6)[C@@]6(C)[C@]7(O)CC[C@@]6(O)C(C)=O)C5)CC4OC)CC3OC)CC2OC)OC(C)C1O (some centres undefined)
inactive: NCI-H226 > 12.5 µM | LOX IMVI > 12.5 µM | Hs-578T > 12.5 µM | UACC-257 > 12.5 µM | SF-295 > 12.5 µM | M14 > 12.5 µM | COLO 205 > 12.5 µM | CCRF-CEM > 12.5 µM | KM12 10.1 µM | MDA-MB-435 > 12.5 µM | MCF7 > 12.5 µM | SW-620 > 12.5 µM | MDA-N > 12.5 µM | TK-10 > 12.5 µM | HT-29 > 12.5 µM | PC-3 > 12.5 µM | SNB-19 > 12.5 µM | CAKI-1 > 12.5 µM | 786-0 > 12.5 µM

C[N+](C)(C)c1ncnc2c1ncn2C1CCCCO1 (centres undefined)
inactive: RXF 393 > 100 µM | LOX IMVI > 100 µM | Hs-578T > 100 µM | UACC-257 > 100 µM | SF-295 > 100 µM | M14 > 100 µM | COLO 205 > 100 µM | CCRF-CEM > 100 µM | KM12 > 100 µM | MDA-MB-435 > 100 µM | MCF7 > 100 µM | SW-620 > 100 µM | MDA-N > 100 µM | TK-10 > 100 µM | HT-29 > 100 µM | PC-3 > 100 µM | SNB-19 > 100 µM | CAKI-1 > 100 µM | 786-0 > 100 µM

C#CCNC(CSSCC(N)C(=O)O)C(=O)O (centres undefined)
inactive: NCI-H226 > 100 µM | RXF 393 > 100 µM | Hs-578T > 100 µM | UACC-257 > 100 µM | SF-295 > 100 µM | M14 > 100 µM | COLO 205 > 100 µM | CCRF-CEM > 100 µM | KM12 > 100 µM | MDA-MB-435 > 100 µM | MCF7 > 100 µM | SW-620 > 100 µM | MDA-N > 100 µM | TK-10 > 100 µM | HT-29 > 100 µM | PC-3 > 100 µM | SNB-19 > 100 µM | CAKI-1 > 100 µM | 786-0 > 100 µM

CCOC(=O)CC(C)C(C#N)(OP1(=O)OC(c2ccccc2)C(C)N1C)c1ccccc1 (centres undefined)
inactive: RXF 393 67.5 µM | LOX IMVI 55.3 µM | Hs-578T 83.6 µM | UACC-257 41.3 µM | SF-295 46.9 µM | M14 68.5 µM | COLO 205 18.5 µM | CCRF-CEM 29.9 µM | KM12 45.8 µM | MDA-MB-435 61 µM | MCF7 37.8 µM | SW-620 54.7 µM | MDA-N > 100 µM | TK-10 68.7 µM | HT-29 57.7 µM | PC-3 33.6 µM | SNB-19 99.1 µM | CAKI-1 81.5 µM | 786-0 77.8 µM

CC(=O)O[C@H]1CCn2c3c(c(C)c21)C(=O)C(N1CC1)=C(C)C3=O
inactive: NCI-H226 > 10 µM | LOX IMVI > 10 µM | Hs-578T > 10 µM | UACC-257 > 10 µM | SF-295 5.11 µM | M14 > 10 µM | COLO 205 6.12 µM | CCRF-CEM > 10 µM | KM12 > 10 µM | MDA-MB-435 > 10 µM | MCF7 5.51 µM | SW-620 > 10 µM | MDA-N > 10 µM | TK-10 > 10 µM | HT-29 2.84 µM | PC-3 > 10 µM | SNB-19 > 10 µM | CAKI-1 > 10 µM | 786-0 > 10 µM

COC(=O)/C=C/c1cc2c(cc1-c1c(C(=O)O)cc(OC)c(OC)c1OC)OCO2
inactive: LOX IMVI > 10 µM | Hs-578T > 10 µM | UACC-257 > 10 µM | SF-295 > 10 µM | M14 > 10 µM | COLO 205 > 10 µM | CCRF-CEM > 10 µM | KM12 > 10 µM | MDA-MB-435 > 10 µM | MCF7 > 10 µM | SW-620 > 10 µM | MDA-N > 10 µM | TK-10 > 10 µM | HT-29 > 10 µM | PC-3 > 10 µM | SNB-19 > 10 µM | CAKI-1 > 10 µM | 786-0 > 10 µM

Cc1cc(C)c2cc(N)c(Cl)nc2n1
inactive: NCI-H226 > 100 µM | RXF 393 > 100 µM | Hs-578T > 100 µM | UACC-257 > 100 µM | SF-295 > 100 µM | M14 > 100 µM | COLO 205 > 100 µM | CCRF-CEM > 100 µM | KM12 > 100 µM | MDA-MB-435 > 100 µM | MCF7 > 100 µM | SW-620 > 100 µM | MDA-N > 100 µM | TK-10 > 100 µM | HT-29 63.5 µM | PC-3 > 100 µM | SNB-19 > 100 µM | CAKI-1 > 100 µM | 786-0 > 100 µM

Cc1cnc2c(c1)C(=O)N(c1ccc(Oc3ccccc3)cc1)S2(=O)=O
inactive: NCI-H226 59.6 µM | LOX IMVI > 100 µM | Hs-578T > 100 µM | UACC-257 > 100 µM | SF-295 > 100 µM | M14 > 100 µM | COLO 205 > 100 µM | CCRF-CEM > 100 µM | KM12 > 100 µM | MDA-MB-435 > 100 µM | MCF7 > 100 µM | SW-620 > 100 µM | MDA-N > 100 µM | TK-10 > 100 µM | HT-29 > 100 µM | PC-3 > 100 µM | SNB-19 > 100 µM | CAKI-1 > 100 µM | 786-0 > 100 µM

CCc1ccccc1NC(=O)/C=C/c1ccccc1
inactive: NCI-H226 > 100 µM | LOX IMVI > 100 µM | Hs-578T 70.6 µM | UACC-257 > 100 µM | SF-295 > 100 µM | M14 > 100 µM | COLO 205 > 100 µM | CCRF-CEM > 100 µM | KM12 > 100 µM | MDA-MB-435 > 100 µM | MCF7 > 100 µM | SW-620 > 100 µM | MDA-N > 100 µM | TK-10 > 100 µM | HT-29 > 100 µM | PC-3 > 100 µM | SNB-19 > 100 µM | CAKI-1 > 100 µM | 786-0 > 100 µM

O=C(O)/C=N/NC(=S)NC1CCCCC1
inactive: NCI-H226 > 100 µM | LOX IMVI > 100 µM | Hs-578T > 100 µM | UACC-257 > 100 µM | SF-295 > 100 µM | M14 > 100 µM | COLO 205 > 100 µM | CCRF-CEM > 100 µM | KM12 > 100 µM | MDA-MB-435 > 100 µM | MCF7 > 100 µM | SW-620 > 100 µM | MDA-N > 100 µM | TK-10 > 100 µM | HT-29 > 100 µM | PC-3 > 100 µM | SNB-19 > 100 µM | CAKI-1 > 100 µM | 786-0 > 100 µM

c1ccc(N2N=C3N(c4ccccc4)C2N3c2ccccc2)cc1
inactive: RXF 393 45.3 µM | LOX IMVI 21.1 µM | Hs-578T 57.7 µM | UACC-257 23.1 µM | SF-295 36.1 µM | M14 20.3 µM | COLO 205 19.5 µM | CCRF-CEM 20.7 µM | KM12 33.7 µM | MDA-MB-435 17.6 µM | MCF7 31.9 µM | SW-620 33.4 µM | MDA-N 19.4 µM | TK-10 71.3 µM | HT-29 29.4 µM | PC-3 44.5 µM | SNB-19 87.1 µM | CAKI-1 88.7 µM
